How the values were obtained:
[1] = tested on: Streptococcus pneumoniae ATCC 49619; settings: S. pneumoniae ATCC 49619
[2] = tested on: P. aeruginosa (ATCC 10145); assay: Broad-spectrum activity against Gram-Negative bacteria (MIC); assay type: cell-based; settings: Table 16, Gram-negative panel
[3] = tested on: Enterococcus faecalis ATCC 29212; settings: E. faecalis ATCC 29212
[4] = tested on: Streptococcus pneumoniae ATCC 51938; settings: S. pneumoniae ATCC 51938
E. coli (ATCC BAA-2452) = assay: Broad-spectrum activity against Gram-Negative bacteria (MIC); assay type: cell-based; settings: Table 16, Gram-negative panel
[5] = tested on: Escherichia coli (ATCC 25922); settings: E. coli ATCC 25922
S. aureus ATCC 29213 = settings: S. aureus ATCC 29213
B. subtilis (ATCC-6633) = assay: Broad-spectrum activity against Gram-Positive bacteria (MIC); assay type: cell-based; set-up: unit not given here
[6] = tested on: P. aeruginosa (ATCC BAA-1744); assay: Broad-spectrum activity against Gram-Negative bacteria (MIC); assay type: cell-based; settings: Table 16, Gram-negative panel
[7] = tested on: Pseudomonas aeruginosa (ATCC 27883); settings: P. aeruginosa ATCC 27883
[8] = tested on: Klebsiella pneumoniae ATCC 13883; settings: Table 16, Gram-negative panel
[9] = tested on: Enterococcus faecalis ATCC 51575; settings: E. faecalis ATCC 51575
[10] = tested on: Enterococcus faecium ATCC 700221; settings: E. faecium ATCC 700221
[11] = tested on: Methicillin-resistant Staphylococcus aureus MRSA (ATCC BAA-1556); settings: MRSA ATCC BAA-1556
B. cereus (ATCC-13061) = assay: Broad-spectrum activity against Gram-Positive bacteria (MIC); assay type: cell-based; set-up: unit not given here
[12] = tested on: Enterococcus faecium ATCC 27270; settings: E. faecium ATCC 27270
[13] = tested on: A. baumannii (ATCC BAA-1605); assay: Broad-spectrum activity against Gram-Negative bacteria (MIC); assay type: cell-based; settings: Table 16, Gram-negative panel
[14] = tested on: Klebsiella pneumoniae (ATCC BAA-1705); settings: Table 16, Gram-negative panel

Substance | Broad-spectrum activity S. pneumoniae (ATCC 49619) [1] | MIC P. aeruginosa (ATCC 10145) [2] | Broad-spectrum activity E. faecalis (ATCC 29212) [3] | Broad-spectrum activity S. pneumoniae (ATCC 51938) [4] | MIC E. coli (ATCC BAA-2452) (E. coli (ATCC BAA-2452)) | MIC E. coli ATCC 25922 [5] | MIC S. aureus ATCC 29213 (S. aureus ATCC 29213) | Broad-spectrum activity B. subtilis (ATCC-6633) (B. subtilis (ATCC-6633)) | MIC P. aeruginosa (ATCC BAA-1744) [6] | MIC P. aeruginosa ATCC 27883 [7] | MIC K. pneumonia (ATCC 13883) [8] | Broad-spectrum activity E. faecalis (ATCC 51575) [9] | Broad-spectrum activity E. faecium (ATCC 700221) [10] | MIC MRSA ATCC BAA-1556 [11] | Broad-spectrum activity B. cereus (ATCC-13061) (B. cereus (ATCC-13061)) | Broad-spectrum activity E. faecium (ATCC 27270) [12] | MIC A. baumannii (ATCC BAA-1605) [13] | MIC K. pneumonia (ATCC BAA-1705) [14]
c[Arg-Arg-Arg-arg-Dip-Trp-Dip] [IFX-091] | 50 | 25 µg/mL | 6.2 | 12.5 | 12.5 µg/mL | 12.5 µg/mL | 3.1 µg/mL | 1.5 | 25 µg/mL | 12.5 µg/mL | 50 µg/mL | 12.5 | 6.2 | 3.1 µg/mL | 3.1 | 3.1 | 12.5 µg/mL | 12.5 µg/mL
c[Arg-Arg-arg-Arg-Dip-Dip-Dip] [IFX-064] | 50 | 25 µg/mL | 6.2 | 25 | 6.2 µg/mL | 12.5 µg/mL | 3.1 µg/mL | 1.5 | 25 µg/mL | 12.5 µg/mL | 50 µg/mL | 12.5 | 1.5 | 3.1 µg/mL | 3.1 | 3.1 | 6.2 µg/mL | 12.5 µg/mL
c[Arg-Arg-arg-Arg-Dip-Trp-Dip] [IFX-092] | 50 | 25 µg/mL | 12.5 | 25 | 12.5 µg/mL | 25 µg/mL | 3.1 µg/mL | 1.5 | 25 µg/mL | 12.5 µg/mL | 50 µg/mL | 12.5 | 12.5 | 3.1 µg/mL | 6.2 | 6.2 | 12.5 µg/mL | 25 µg/mL
c[Arg-Arg-arg-arg-NaI-trp-NaI] [IFX-139] | 25 | 50 µg/mL | 6.2 | 12.5 | 25 µg/mL | 32 µg/mL | 3.1 µg/mL | 1.5 | 50 µg/mL | 32 µg/mL | > 50 µg/mL | 6.2 | 6.2 | 3.1 µg/mL | 3.1 | 3.1 | 12.5 µg/mL | 25 µg/mL
c[Arg-Arg-arg-arg-naI-trp-naI] [IFX-137] | 25 | 25 µg/mL | 6.2 | 12.5 | 25 µg/mL | 16 µg/mL | 3.1 µg/mL | 1.5 | 25 µg/mL | 32 µg/mL | 50 µg/mL | 6.2 | 3.1 | 3.1 µg/mL | 3.1 | 3.1 | 12.5 µg/mL | 50 µg/mL
c[Arg-arg-Arg-Arg-Dip-Dip-Dip] [IFX-065] | 25 | 12.5 µg/mL | 6.2 | 12.5 | 6.2 µg/mL | 12.5 µg/mL | 3.1 µg/mL | 1.5 | 12.5 µg/mL | 12.5 µg/mL | 50 µg/mL | 12.5 | 3.1 | 1.5 µg/mL | 3.1 | 3.1 | 6.2 µg/mL | 12.5 µg/mL
c[Arg-arg-Arg-Arg-Dip-Trp-Dip] [IFX-093] | 50 | 25 µg/mL | 12.5 | 25 | 6.2 µg/mL | 12.5 µg/mL | 3.1 µg/mL | 1.5 | 25 µg/mL | 12.5 µg/mL | 50 µg/mL | 12.5 | 6.2 | 3.1 µg/mL | 6.2 | 6.2 | 12.5 µg/mL | 12.5 µg/mL
c[Arg-arg-Arg-arg-dip-Trp-dip] [IFX-097] | 50 | 50 µg/mL | 6.2 | 25 | 25 µg/mL | 12.5 µg/mL | 3.1 µg/mL | 1.5 | 50 µg/mL | 12.5 µg/mL | > 50 µg/mL | 12.5 | 6.2 | 3.1 µg/mL | 6.2 | 3.1 | 12.5 µg/mL | 25 µg/mL
